According to BindingDB's records for patent US20240043440 (Case Western Reserve University, 2024):

target: T1, 15-hydroxyprostaglandin dehydrogenase [NAD(+)] (Homo sapiens, UniProt P15428); experiment: In vitro Assay (5 nM)
T1 sequence (P15428 whole entry): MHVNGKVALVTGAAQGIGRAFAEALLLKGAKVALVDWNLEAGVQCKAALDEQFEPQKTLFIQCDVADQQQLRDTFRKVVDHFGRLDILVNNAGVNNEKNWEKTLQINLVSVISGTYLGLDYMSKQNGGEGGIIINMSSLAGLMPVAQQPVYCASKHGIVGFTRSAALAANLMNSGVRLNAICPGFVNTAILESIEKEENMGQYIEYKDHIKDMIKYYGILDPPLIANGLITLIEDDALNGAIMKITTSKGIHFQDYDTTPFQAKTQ
Method: Each compound for inhibiting enzymatic activity of recombinant 15-PGDH (5 nM) in an in vitro assay.

Q: `CCCC[S+]([O-])c1sc2nc(-c3ccccc3)cnc2c1N` (centres undefined) [US20240043440, Example 27] was tested. Which IC50 did it give?
A: 1.6 nM

Q: `CCCC[S+]([O-])c1sc2nc(-c3nccs3)cc(-c3cn(C)cn3)c2c1N` (centres undefined) [US20240043440, Example 28] was tested. Which IC50 did it give?
A: 1.4 nM

Q: With `CCCC[S@@+]([O-])c1sc2nc(-c3nccs3)cc(-c3nccn3CC)c2c1N` [US20240043440, Example 29] as the compound, how does the IC50 read?
A: 1.4 nM

Q: Which IC50 does the source give for `CCCC[S@+]([O-])c1sc2nc(-c3nccs3)cc(-c3nccn3CC)c2c1N` [US20240043440, Example 30] here?
A: 221 nM
